# Measurements taken from patent US20230115176A1 (Ra Pharmaceuticals, Inc., priority 2019, published 2023).
# Assays:
# Human C5 [1] = target: T1, Human C5 (Homo sapiens, UniProt P01031); experiment: Red blood cell (RBC) hemolysis assay, luminescent (Example 28, Table 32); format: cell-based; conditions: sheep EA cells, 1.5% C5-depleted human serum, 0.5 nM human C5, 1 hour at 37° C., luminescence (Table 32)
# T1 construct: purchased Complement Technology
# [2] = tested on: P-glycoprotein (P-gp, MDR1); experiment: Permeability assay, bidirectional transport, efflux ratio (Example 30, Table 34); format: in vitro ADME, canine; conditions: dog, MDCK-MDR1, pH 7.4; read-out: MDCK-MDR efflux ratio
# Procedure: (§1) Permeability assays were carried out to provide a preliminary indication of suitability for oral dosing and compound permeability across the blood brain barrier. Unidirectional and bidirectional compound transport across Madin Darby canine kidney (MDCK) cell monolayers was assessed. For unidirectional transport assessment, transport across MDCK wild type (MDCK-WT) cell monolayers was assessed. For bidirectional transport, transport across MDCK-MDR1 cell monolayers was assessed. MDCK-MDR1 cells express the MDR1 gene encoding the P-glycoprotein (P-gp) efflux protein.
# (§2) MDCK-WT and MDCK-MDR1 cells were plated onto permeable polycarbonate supports in 12-well Costar transwell plates and allowed to grow and differentiate for 3 days. After 3 days in culture, the culture medium (DMEM supplemented with 10% FBS) was removed from both sides of the transwell inserts and cells were rinsed with warm HBSS. After the rinse step, the chambers were filled with warm transport buffer (HBSS containing 10 mM HEPES, 0.25% BSA, pH 7.4) and the plates were pre-incubated at 37° C. for 30 minutes prior to TEER (Trans Epithelial Electric Resistance) measurements.
# (§3) The buffer in the donor chamber (apical side for A-to-B assay, basolateral side for B-to-A assay) was removed and replaced with the working solution (3 μM test compound and 10 μM for control compounds in transport buffer). The plates were then placed at 37° C. under light agitation. At designated time points (30, 60 and 90 min), an aliquot of transport buffer from the receiver chamber was removed and replenished with fresh transport buffer. Samples were quenched with ice-cold ACN containing internal standard and then centrifuged to pellet protein. Resulting supernatants were further diluted with 50/50 ACN/H2O (Atenolol diluted in just water) and submitted for LC-MS/MS analysis. Apparent permeability (Pap) values were calculated from duplicate determinations. Atenolol and propranolol were tested as low and […] permeability references.
# Efflux ratios were calculated for bidirectional transport across MDCK-MDR1 cell monolayers as an indication of compound efflux by P-gp. The efflux ratio is calculated using the ratio of mean Papp values for B to A transport to mean Papp values for A to B transport [Papp(BA)/Papp(AB)].
# [3] = Permeability assay, unidirectional transport, Papp (Example 30, Table 34); format: in vitro ADME, canine; conditions: dog, pH 7.4; MDCK-WT cell monolayers, A-to-B, 3 μM test compound, 37° C., duplicate determinations
# Procedure: as §1, §2, §3
# Papp values indicate extent of compound permeation across monolayers.
# Human C5 [4] = target: T1, Human C5; experiment: Hemolysis assay, luminescent, classical complement pathway (Example 4, Table 7); format: cell-based; conditions: sheep EA cells, 1.5% C5-depleted human serum, 0.5 nM human C5, luminescence readout
# Description: Numbers in parenthesis following the compound number indicate alternate enantiomers (as distinguished by retention time during chromatographical separation).
# Human C5 [5] = target: T1, Human C5; experiment: Surface plasmon resonance (SPR), compounds on immobilized human C5 (Example 2, Table 5); format: binding; conditions: lowest value where a range of compound concentrations were analyzed
# Procedure: Surface plasmon resonance (SPR) technology was used to evaluate affinity, specificity, and kinetics of interactions between compounds and complement protein C5 in real time without the need for labeling.
# SensiQ FE SPR system (SensiQ Technologies, Oklahoma City, Okla.) was used to provide sensitive and accurate detection of binding of small molecules to the very large C5 protein (MW=195,000 Da). The chip was prepared by preconditioning the sensor according to the protocol of the SensiQ FE using 10 mM HCl, 50 mM NAOH and 0.1% SDS. The sensor chip was activated by using a mixture of fresh EDAC (1-ethyl-3-(-3-dimethylaminopropyl) carbodiimide) (Sigma Co., St. Louis, Mo.) and NHS (N-hydroxy succinimide) (Sigma Co., St. Louis, Mo.). Human C5 was surface immobilized to a Pioneer Biosensor chip via random amine coupling (>12,000 RU) which makes use of the N-terminus and ε-amino groups of lysine residues of the protein ligand. Immobilization was done by injecting 30-40 μg/ml C5 in 10 mM NaAc pH 4.5 onto designated channels at a rate of 10 μL/minute for 12 minutes, targeting RL>12000 RU for small molecules.
# Compounds were diluted in DMSO in a format of 100-fold final concentration and 3-fold serial dilution (5 or 6 dilutions). The 100-fold compounds were transferred to one-fold DMSO-free assay buffer in the 96-well test plate. The compound solution was injected at a rate of 60 μL/minute for 30-60 seconds, followed by 60-90 seconds dissociation time, buffer flushing and/or priming. Blank solution (1% DMSO assay buffer) was run for every 6 injections of compounds. Double reference by subtracting both blank channel and reference channel was applied for data processing. Titration of C5 binding compounds to the C5-immobilized biosensor chip surface led to interactions between C5 and potential binders, and the resulting changes of surface refractive index were sensitively measured by the system.
# SPR data were analyzed with the managing software provided by SensiQ and equilibrium dissociation constant (KD) values were determined for each compound. Where a range of compound concentrations were analyzed, the lowest value obtained is presented.
# purified human C5 = purified human C5 (Homo sapiens, UniProt P01031); experiment: Red blood cell hemolysis assay, optical, absorbance 412 nm (Example 3, Table 6); format: cell-based; conditions: antibody-sensitized sheep erythrocytes, 1.5% human C5 depleted sera, 0.5 nM human C5; average where replicates
# Chain of purified human C5 (P01031 19-1676): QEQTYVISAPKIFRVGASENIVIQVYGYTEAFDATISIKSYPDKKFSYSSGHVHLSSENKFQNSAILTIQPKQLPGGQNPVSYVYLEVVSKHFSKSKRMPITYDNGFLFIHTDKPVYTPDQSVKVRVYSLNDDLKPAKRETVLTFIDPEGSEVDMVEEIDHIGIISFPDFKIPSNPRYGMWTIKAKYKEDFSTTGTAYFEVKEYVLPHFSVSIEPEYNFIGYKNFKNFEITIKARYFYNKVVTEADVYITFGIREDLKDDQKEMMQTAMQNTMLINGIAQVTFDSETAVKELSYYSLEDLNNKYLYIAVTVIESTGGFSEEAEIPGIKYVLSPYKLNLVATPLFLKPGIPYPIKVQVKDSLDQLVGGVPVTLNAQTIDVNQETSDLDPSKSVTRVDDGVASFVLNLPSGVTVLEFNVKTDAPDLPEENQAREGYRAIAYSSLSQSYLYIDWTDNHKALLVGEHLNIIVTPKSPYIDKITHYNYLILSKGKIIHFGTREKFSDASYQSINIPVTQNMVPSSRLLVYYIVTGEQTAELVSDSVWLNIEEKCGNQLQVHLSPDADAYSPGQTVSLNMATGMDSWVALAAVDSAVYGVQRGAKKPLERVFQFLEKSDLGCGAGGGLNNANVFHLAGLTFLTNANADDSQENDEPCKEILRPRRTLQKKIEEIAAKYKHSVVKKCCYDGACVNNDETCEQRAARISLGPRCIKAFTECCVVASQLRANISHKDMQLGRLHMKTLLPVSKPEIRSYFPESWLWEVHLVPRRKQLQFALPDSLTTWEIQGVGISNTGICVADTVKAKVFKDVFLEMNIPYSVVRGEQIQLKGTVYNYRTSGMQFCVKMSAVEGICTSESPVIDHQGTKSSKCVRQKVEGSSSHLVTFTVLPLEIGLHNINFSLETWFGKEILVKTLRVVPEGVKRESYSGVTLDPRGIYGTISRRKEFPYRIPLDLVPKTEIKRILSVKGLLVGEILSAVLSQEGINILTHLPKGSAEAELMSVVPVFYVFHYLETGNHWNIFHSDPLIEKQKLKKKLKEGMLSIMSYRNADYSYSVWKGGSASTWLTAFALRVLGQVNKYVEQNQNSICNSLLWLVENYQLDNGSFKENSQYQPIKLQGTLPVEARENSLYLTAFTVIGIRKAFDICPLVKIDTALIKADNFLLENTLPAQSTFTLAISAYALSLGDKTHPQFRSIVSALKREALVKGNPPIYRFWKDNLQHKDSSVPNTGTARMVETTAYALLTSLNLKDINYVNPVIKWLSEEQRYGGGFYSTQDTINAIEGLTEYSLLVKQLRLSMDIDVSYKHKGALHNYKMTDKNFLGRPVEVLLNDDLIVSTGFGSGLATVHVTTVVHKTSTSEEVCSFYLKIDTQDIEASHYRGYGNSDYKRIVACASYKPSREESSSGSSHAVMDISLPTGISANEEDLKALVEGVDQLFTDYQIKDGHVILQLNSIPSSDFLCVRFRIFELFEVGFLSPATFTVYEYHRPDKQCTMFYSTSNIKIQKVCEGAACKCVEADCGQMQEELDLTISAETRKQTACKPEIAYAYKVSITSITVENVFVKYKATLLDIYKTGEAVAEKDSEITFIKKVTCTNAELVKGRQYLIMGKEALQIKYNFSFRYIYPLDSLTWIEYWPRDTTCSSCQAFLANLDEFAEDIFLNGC
# Procedure: Experiments were carried out using a red blood cell (RBC) hemolysis assay to assess compound inhibition of RBC lysis. […] The assay was carried out using 1.5% human C5 depleted sera and 0.5 nM purified human C5.
# GVB++ buffer (Complement Technology, Tyler, Tex.) was heated at 37° C. for a minimum of 20 minutes. The human C5 depleted sera and purified human C5 were rapidly thawed at 37° C. and then stored on ice or wet ice, respectively. The compound stock (10 mM, DMSO) was serially diluted in 100% DMSO to obtain ten 6-fold dilutions before addition of GVB++. Sera dilution was prepared by adding 5 mL of GVB++ to a 15 mL conical tube, removing 600 μL of the GVB++ and adding 600 μL of the 100% sera. The tube was mixed by inverting three times. A volume of 25 μL of the diluted sera was added to each well so that the final concentration of sera in the well was 1.5%. C5 dilution was prepared by adding 5 mL of GVB++ to a 15 mL conical tube, removing 4 μL of the GVB++ and adding 4 μL of the C5 stock. The tube was mixed by inverting three times. A volume of 25 μL was added to each well so that the final amount of C5 was 0.5 nM in each well. The antibody-sensitized sheep erythrocytes (EAs) were centrifuged at 1,000× gravity at 22° C. for 3 minutes. The supernatant was pipetted off without disrupting the pellet. The pellet was then resuspended in GVB++ with the same volume removed. Resuspended EAs were mixed by gently inverting the tube.
# Five controls were run on each plate: (1) EAs only=100 μL EAs+50 μL GVB++ with 4% DMSO+50 μL GVB++; (2) EA+Sera=100 μL EAs+50 μL GVB++ with 4% DMSO+25 μL Sera dilution+25 μL GVB++; (3) EA+C5=100 μL EAs+50 μL GVB++ with 4% DMSO+25 μL C5 dilution+25 μL GVB++; (4) EA+Sera+C5=100 μL EAs+50 μL GVB++ with 4% DMSO+25 μL Sera dilution+25 μL C5; (5) GVB++ Only=200 μL GVB++. Other wells included: GVB++ with 4% DMSO=20 μL DMSO+480 μL GVB++. All samples were analyzed in duplicate. The compound dose response curve was generated using samples prepared with 100 μL EA+50 μL compound dilution+25 μL C5 dilution+25 μL sera dilution.
# Test plates were prepared by adding 100 μL of EAs, 50 μL of compound dilution, 25 μL of sera dilution, and 25 μL of C5 dilution to individual wells of a 96-well tissue culture-treated clear microtitre plate (USA Scientific, Ocala, Fla.) and resuspending by pipetting up and down three times. The samples were incubated at 37° C. for one hour. At the completion of the incubation, the plates were centrifuged at 1,000× gravity for 3 minutes. 100 μl of supernatant were transferred to a new plate and the absorbance was read at 412 nm. Data was fit with a log-logit formula producing a dose-response curve and IC50.
# “IC50” refers to the half maximal inhibitory concentration, where the value is the concentration of the inhibitor needed to reduce red blood cell hemolysis by half. Where replicate analysis was conducted, average IC50 values are provided along with standard deviation (SD) values.
# [6] = Kinetic solubility in PBS pH 7.4, HPLC-UV (Example 21, Table 27); format: physicochemical; conditions: phosphate buffered saline, aqueous buffer, kinetic from dmso stock, 0.5 M PBS, shaken minimum 24 h at approximately 25° C., HPLC-UV 270 nm
# Procedure, shortened: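 Supernatant measured by HPLC-UV (270 nm) against a DMSO calibration curve of 15.6–500.0 μM after filtration. Triplicate samples were made from 10 mM DMSO stock in 0.05 M phosphate buffer pH 7.4 (5% DMSO) and shaken at least 24 h at about 25 °C.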
# [7] = target: human C5 complement protein (Homo sapiens, UniProt P01031); experiment: Surface plasmon resonance (SPR), immobilized human C5, 37° C. (Example 27, Table 31); format: binding; conditions: lowest value obtained where a range of concentrations was analyzed (Table 31)
# Chain of human C5 complement protein (P01031 19-1676): as above
# Human C5 [8] = target: T1, Human C5; experiment: Red blood cell (RBC) hemolysis assay, luminescent (Example 13, Table 22); format: cell-based; conditions: sheep EA cells, […] C5-depleted human serum, 0.5 nM human C5, 1 hour 37° C., luminescence
# Description: Compound CU0136 is a racemic mixture of Compound CU0186 and CU0187. Numbers in parenthesis following compound numbers indicate alternate enantiomers (as distinguished by retention time during chromatographical separation).
# T1 sequence (P01031 19-1676): as above
structure (smiles),measurement,setting,value
COc1cc(CC(=O)N[C@@H]2CN(C)C[C@@H]2F)ccc1CN1C(=O)N(c2ccc(OC)c(OCCCC3CC3)c2)CC[C@@H]1C [SC0109],IC50,Human C5 [1],1.2 nM
same,efflux ratio at 3 μM,[2],144
same,Papp A→B at 3 μM,[3],5.7 ×10⁻⁶ cm/s
COc1ccc(NC(=O)N[C@@H](CO)c2ccccc2OC)cc1OCCCC(C)C [SM0002],IC50,Human C5 [4],11.9 nM
same,Kd,Human C5 [5],14 nM
same,IC50,purified human C5,21.9 nM
CCCCCOc1cc(NC(=O)NCc2ccc(Br)cc2OC)ccc1OC [SM0219],IC50,Human C5 [4],239 nM
CCCCCOc1cc(NC(=O)N(CC(=O)NCc2cccnc2)Cc2cc(F)ccc2OC)ccc1OC [SM0205],IC50,Human C5 [4],1290 nM
COc1ccc(NC(=O)NCc2ccccc2OC(F)F)cc1OCCCC(C)C [SM0104],IC50,Human C5 [4],558 nM
same,Kd,Human C5 [5],210 nM
CCCCCOc1cc(NC(=O)N(CCC(=O)NCc2ccncc2)Cc2cc(F)ccc2OC)ccc1OC [SM0215],IC50,Human C5 [4],244 nM
COc1ccc(N2CC[C@H](C)N(Cc3cccc4c3c(Cl)cn4CC(=O)N3CCOCC3)C2=O)cc1OCCCC1CC1 [SC0115],IC50,Human C5 [1],1.4 nM
same,solubility kinetic,[6],< 10 µM
same,Kd,[7],0.18 nM
COc1ccccc1CNC(=O)Nc1ccc(OC)c(OCCCC(C)C)c1 [SM0006],IC50,Human C5 [4],37.6 nM
same,Kd,Human C5 [5],18 nM
same,IC50,purified human C5,125 nM
CCCCCOc1cc(N2CCCN(Cc3ccnc4c3c(Cl)cn4CC(=O)N3CC4CC(C3)O4)C2=O)ccc1OC [CU0506],efflux ratio at 3 μM,[2],59
same,Papp A→B at 3 μM,[3],21.1 ×10⁻⁶ cm/s
CCCCCOc1cc(N2CC[C@H](C)N(Cc3ccnc4c3c(Cl)cn4CC(=O)N3CCOC3)C2=O)ccc1OC [SC0113],IC50,Human C5 [1],1.3 nM
same,Papp A→B at 3 μM,[3],17.9 ×10⁻⁶ cm/s
same,Kd,[7],0.02 nM
CCCCCOc1cc(N2CC[C@H](C)N(Cc3cccc4c3c(C)cn4CC(=O)N(C)C)C2=O)ccc1OC [SC0107],IC50,Human C5 [1],1.1 nM
same,solubility kinetic,[6],52 µM
same,Kd,[7],0.36 nM
CCCCCOc1cc(NC(=O)N(CCC(=O)N(C)C)Cc2cc(F)ccc2OC)ccc1OC [SM0216],IC50,Human C5 [4],199 nM
CCCCCOc1cc(N2CC[C@H](C)N(Cc3cccc4c3c(C)cn4CC(=O)N3CCCOCC3)C2=O)ccc1OC [SC0103],IC50,Human C5 [1],1 nM
same,solubility kinetic,[6],24 µM
same,Kd,[7],0.08 nM
CCCCCOc1cc(NC(=O)N(CC(=O)N(C)C)Cc2cc(F)ccc2OC)ccc1OC [SM0211],IC50,Human C5 [4],1910 nM
COc1ccc(N2CCCN(Cc3ccnc4c3c(Cl)cn4CC(=O)N(C)C)C2=O)cc1Br [CU0689],efflux ratio at 3 μM,[2],8
same,Papp A→B at 3 μM,[3],23.8 ×10⁻⁶ cm/s
CCCCCOc1cc(N2CC[C@H](C)N(Cc3cccc4c3c(Cl)cn4CC(=O)N3CCOC(CN(C)C)C3)C2=O)ccc1OC (stereo partly shown) [SC0154],IC50,Human C5 [1],2.3 nM
same,solubility kinetic,[6],315 µM
same,Kd,[7],0.04 nM
CCCCCOc1cc(NC(=O)N(CC(=O)NC)Cc2cc(F)ccc2OC)ccc1OC [SM0212],IC50,Human C5 [4],867 nM
COc1ccc(N2CC[C@H](C)N(Cc3ccnc4c3c(Cl)cn4CC(=O)N(C)C)C2=O)cc1OCCCC1CC1 [SC0119],IC50,Human C5 [1],1.4 nM
same,solubility kinetic,[6],65 µM
same,Kd,[7],1.21 nM
COc1cc(CC(=O)N(C)C)ccc1CN1CCCN(c2ccc(OC)c(OCCCC(C)(F)F)c2)C1=O [CU0140],efflux ratio at 3 μM,[2],63
same,solubility kinetic,[6],404 µM
same,Papp A→B at 3 μM,[3],26 ×10⁻⁶ cm/s
same,IC50,Human C5 [8],15.8 nM
CCCCCOc1cc(N2CC[C@@H](C)N(Cc3cccc4c3c(Cl)cn4CC(=O)N(C)C)C2=O)ccc1OC [SC0110],IC50,Human C5 [1],1.3 nM
same,efflux ratio at 3 μM,[2],18
same,Papp A→B at 3 μM,[3],15.3 ×10⁻⁶ cm/s
CCCCOc1cc(NC(=O)N[C@@H](CO)c2ccccc2)ccc1OC [SM0035],IC50,Human C5 [4],328 nM
same,IC50,purified human C5,1180 nM
CCCCCOc1cc(NC(=O)N(CC(=O)NCCN2CCCC2)Cc2cc(F)ccc2OC)ccc1OC [SM0206],IC50,Human C5 [4],2060 nM
